Assay results: patent US20230233569A1 (Revolution Medicines, Inc., priority 2020, published 2023)
pIC50: −log10 of the molar value. Where two headings read alike, the source gives them in different places.

How the values were obtained:
Test in all cases: Ras-Raf disruption / FRET / MOA assay (BRAF RBD)
Format in all cases: biochemical
KRAS G12D = KRAS G12D (Homo sapiens, UniProt P01116+P62937, G12D); conditions: with Cyclophilin A
Summary of the method: (§1)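 Compound-induced Ras–Cyclophilin A ternary complex disrupting BRAF RBD binding, read as IC50 from reduced TR-FRET ratio relative to DMSO. Final: Ras-GMPPNP 12.5 nM, BRAF RBD 50 nM, Cyclophilin A 25 μM, top compound 30 μM (3-fold, 10 points); 3 h at 25 °C, then 1.5 h with detection antibodies.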

KRAS G12S = KRAS G12S (Homo sapiens, UniProt P01116+P62937, G12S); conditions: with Cyclophilin A
Summary of the method: as §1

KRAS G12V = KRAS G12V (Homo sapiens, UniProt P01116+P62937, G12V); conditions: with Cyclophilin A
Summary of the method: as §1

KRAS G13C = KRAS G13C (Homo sapiens, UniProt P01116+P62937, G13C); conditions: with Cyclophilin A
Summary of the method: as §1

KRAS G13D = KRAS G13D (Homo sapiens, UniProt P01116+P62937, G13D); conditions: with Cyclophilin A
Summary of the method: as §1

KRAS Q61H = KRAS Q61H (Homo sapiens, UniProt P01116+P62937, Q61H)
Summary of the method: as §1

KRAS WT = KRAS WT (Homo sapiens, UniProt P01116+P62937); conditions: with Cyclophilin A
Summary of the method: as §1

NRAS G12C = NRAS G12C (Homo sapiens, UniProt P01111+P62937, G12C)
Summary of the method: as §1

NRAS Q61K = NRAS Q61K (Homo sapiens, UniProt P01111+P62937, Q61K)
Summary of the method: as §1

NRAS Q61R = NRAS Q61R (Homo sapiens, UniProt P01111+P62937, Q61R)
Summary of the method: as §1

NRAS WT = NRAS WT (Homo sapiens, UniProt P01111+P62937)
Summary of the method: as §1

KRAS G12C = KRAS G12C (Homo sapiens, UniProt P01116+P62937, G12C); conditions: with Cyclophilin A
Summary of the method: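 TR-FRET read-out after 1.5 h with anti-His Eu-W1024 (10 nM) and anti-GST APC (50 nM), following 3 h at 25 °C of compound (top 30 μM, 3-fold, 10 points) with 25 μM Cyclophilin A, 12.5 nM GMPPNP-loaded K-Ras G12C and 50 nM BRAF RBD; IC50 reported.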

[1] = Ras-Raf disruption, read-out: KRAS G12D FRET data IC50
[2] = Ras-Raf disruption, read-out: KRAS G12S FRET data IC50
[3] = Ras-Raf disruption, read-out: KRAS G12V FRET data IC50
[4] = Ras-Raf disruption, read-out: KRAS G13C FRET data IC50
[5] = Ras-Raf disruption, read-out: KRAS G13D FRET data IC50
[6] = KRAS Q61H, read-out: KRAS Q61H FRET data IC50
[7] = Ras-Raf disruption, read-out: KRAS WT FRET data IC50
[8] = NRAS G12C, read-out: NRAS G12C FRET data IC50
[9] = NRAS Q61K, read-out: NRAS Q61K FRET data IC50
[10] = NRAS Q61R, read-out: NRAS Q61R FRET data IC50
[11] = NRAS WT, read-out: NRAS WT FRET data IC50
[12] = Ras-Raf disruption, read-out: KRAS G12C FRET data IC50

NRAS WT, sequence (P01111 whole entry): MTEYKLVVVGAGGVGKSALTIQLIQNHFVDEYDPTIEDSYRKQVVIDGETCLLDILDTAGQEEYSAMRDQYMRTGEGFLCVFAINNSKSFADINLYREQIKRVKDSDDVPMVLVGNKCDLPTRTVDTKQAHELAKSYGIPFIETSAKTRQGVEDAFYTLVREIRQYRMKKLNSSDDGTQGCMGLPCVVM
NRAS WT, sequence (P62937 whole entry): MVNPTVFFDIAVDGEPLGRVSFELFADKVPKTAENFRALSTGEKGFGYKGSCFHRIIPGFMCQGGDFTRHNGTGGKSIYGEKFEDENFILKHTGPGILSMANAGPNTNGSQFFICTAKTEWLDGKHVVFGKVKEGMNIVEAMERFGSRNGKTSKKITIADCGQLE
KRAS WT, sequence (P01116 1-169 isoform P01116-2 limits assumed): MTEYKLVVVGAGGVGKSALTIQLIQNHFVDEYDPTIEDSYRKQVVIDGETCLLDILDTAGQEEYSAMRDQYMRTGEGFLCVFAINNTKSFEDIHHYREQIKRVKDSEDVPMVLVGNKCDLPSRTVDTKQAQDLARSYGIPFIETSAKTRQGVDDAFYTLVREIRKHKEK
KRAS WT, sequence (P62937 whole entry): as the sequence (P62937 whole entry) above
KRAS G13C, sequence (P01116 1-169 isoform P01116-2 G13C limits assumed): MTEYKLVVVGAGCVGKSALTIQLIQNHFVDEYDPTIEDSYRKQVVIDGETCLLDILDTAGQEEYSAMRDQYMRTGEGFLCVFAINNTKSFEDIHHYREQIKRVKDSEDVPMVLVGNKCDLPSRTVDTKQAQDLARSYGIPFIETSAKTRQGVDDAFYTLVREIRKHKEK
KRAS G13C, sequence (P62937 whole entry): as the sequence (P62937 whole entry) above
KRAS Q61H, sequence (P01116 1-169 isoform P01116-2 Q61H limits assumed): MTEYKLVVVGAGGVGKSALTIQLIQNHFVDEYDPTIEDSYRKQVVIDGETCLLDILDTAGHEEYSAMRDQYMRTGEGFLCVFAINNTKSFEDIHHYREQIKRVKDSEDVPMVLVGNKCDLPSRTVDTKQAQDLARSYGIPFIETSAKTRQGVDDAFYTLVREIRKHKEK
KRAS Q61H, sequence (P62937 whole entry): as the sequence (P62937 whole entry) above
KRAS G12V, sequence (P01116 1-169 isoform P01116-2 G12V limits assumed): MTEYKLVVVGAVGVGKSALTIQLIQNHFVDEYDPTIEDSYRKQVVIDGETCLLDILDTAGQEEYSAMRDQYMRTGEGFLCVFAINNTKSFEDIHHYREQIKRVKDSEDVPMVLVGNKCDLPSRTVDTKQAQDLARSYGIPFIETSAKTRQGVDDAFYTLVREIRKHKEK
KRAS G12V, sequence (P62937 whole entry): as the sequence (P62937 whole entry) above
NRAS Q61K, sequence (P01111 whole entry Q61K): as the sequence (P01111 whole entry) above, with Q61K counted along it
NRAS Q61K, sequence (P62937 whole entry): as the sequence (P62937 whole entry) above
KRAS G12S, sequence (P01116 1-169 isoform P01116-2 G12S limits assumed): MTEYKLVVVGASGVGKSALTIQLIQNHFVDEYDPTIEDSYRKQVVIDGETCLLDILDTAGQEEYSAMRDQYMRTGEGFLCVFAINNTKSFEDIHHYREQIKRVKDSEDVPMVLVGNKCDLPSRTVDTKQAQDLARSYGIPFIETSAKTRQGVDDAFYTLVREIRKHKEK
KRAS G12S, sequence (P62937 whole entry): as the sequence (P62937 whole entry) above
NRAS Q61R, sequence (P01111 whole entry Q61R): as the sequence (P01111 whole entry) above, with Q61R counted along it
NRAS Q61R, sequence (P62937 whole entry): as the sequence (P62937 whole entry) above
KRAS G12D, sequence (P01116 1-169 isoform P01116-2 G12D limits assumed): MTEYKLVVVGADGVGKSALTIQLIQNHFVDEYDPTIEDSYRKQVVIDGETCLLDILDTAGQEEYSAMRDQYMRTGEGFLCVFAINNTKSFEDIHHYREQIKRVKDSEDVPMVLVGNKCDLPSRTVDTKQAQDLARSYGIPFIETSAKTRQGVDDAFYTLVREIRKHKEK
KRAS G12D, sequence (P62937 whole entry): as the sequence (P62937 whole entry) above
NRAS G12C, sequence (P01111 whole entry G12C): as the sequence (P01111 whole entry) above, with G12C counted along it
NRAS G12C, sequence (P62937 whole entry): as the sequence (P62937 whole entry) above
KRAS G12C, sequence (P01116 1-169 isoform P01116-2 G12C limits assumed): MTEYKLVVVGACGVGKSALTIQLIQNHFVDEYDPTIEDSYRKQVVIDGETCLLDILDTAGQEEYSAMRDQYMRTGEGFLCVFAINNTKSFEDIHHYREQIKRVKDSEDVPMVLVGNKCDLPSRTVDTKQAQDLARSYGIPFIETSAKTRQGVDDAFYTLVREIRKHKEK
KRAS G12C, sequence (P62937 whole entry): as the sequence (P62937 whole entry) above
KRAS G13D, sequence (P01116 1-169 isoform P01116-2 G13D limits assumed): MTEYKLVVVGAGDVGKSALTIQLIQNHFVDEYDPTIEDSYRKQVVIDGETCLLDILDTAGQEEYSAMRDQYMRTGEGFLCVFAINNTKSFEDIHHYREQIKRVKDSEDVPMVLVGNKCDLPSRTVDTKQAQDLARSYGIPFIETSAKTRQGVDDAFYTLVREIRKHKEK
KRAS G13D, sequence (P62937 whole entry): as the sequence (P62937 whole entry) above

Structure (SMILES) | pIC50 (KRAS G12D; [1]) | pIC50 (KRAS G12S; [2]) | pIC50 (KRAS G12V; [3]) | pIC50 (KRAS G13C; [4]) | pIC50 (KRAS G13D; [5]) | pIC50 (KRAS Q61H; [6]) | pIC50 (KRAS WT; [7]) | pIC50 (NRAS G12C; [8]) | pIC50 (NRAS Q61K; [9]) | pIC50 (NRAS Q61R; [10]) | pIC50 (NRAS WT; [11]) | pIC50 (KRAS G12C; [12]) | other results
CCn1c(-c2cccnc2[C@H](C)OC)c2c3cc(ccc31)-c1csc(n1)C[C@H](NC(=O)[C@H](C(C)C)N(C)C(=O)N1CC[C@H](N(C)C(=O)[C@H]3CN3)C1)C(=O)N1CCC[C@H](N1)C(=O)OCC(C)(C)C2 (atropisomer, axis not shown) [Example 228] | 5.00 to 6.00 | 6.00 to 7.00 | 6.00 to 7.00 | 6.00 to 7.00 | 6.00 to 7.00 | 7.00 to 8.00 | 6.00 to 7.00 | 7.00 to 8.00 | 7.00 to 8.00 | 6.00 to 7.00 | 6.00 to 7.00 | 6.00 to 7.00 | 
CCn1c(-c2cccnc2[C@H](C)OC)c2c3cc(ccc31)-c1csc(n1)C[C@H](NC(=O)[C@H](C(C)C)N(C)C(=O)N(C)CCN(C)C(=O)[C@@H]1CN1)C(=O)N1CCC[C@H](N1)C(=O)OCC(C)(C)C2 (atropisomer, axis not shown) [Example 217] | 6.00 to 7.00 | 6.00 to 7.00 | 6.00 to 7.00 | 6.00 to 7.00 | 6.00 to 7.00 | 7.00 to 8.00 | 6.00 to 7.00 | 7.00 to 8.00 | 7.00 to 8.00 | 6.00 to 7.00 | 7.00 to 8.00 | 7.00 to 8.00 | 
CCn1c(-c2cccnc2[C@H](C)OC)c2c3cc(ccc31)-c1csc(n1)C[C@H](NC(=O)[C@H](C(C)C)N(C)C(=O)N1CCN(C(=O)[C@H]3CN3)C[C@H]1C)C(=O)N1CCC[C@H](N1)C(=O)OCC(C)(C)C2 [Example 301] | 6.00 to 7.00 | 7.00 to 8.00 | 6.00 to 7.00 | 7.00 to 8.00 | 6.00 to 7.00 | 7.00 to 8.00 | 7.00 to 8.00 | 7.00 to 8.00 | 7.00 to 8.00 | 7.00 to 8.00 | 7.00 to 8.00 | 7.00 to 8.00 | 
CCn1c(-c2cccnc2[C@H](C)OC)c2c3cc(ccc31)-c1cc(O)cc(c1)C[C@H](NC(=O)[C@H](C(C)C)N(C)C(=O)CN(C)C(=O)[C@H]1C[C@@H]3N[C@@H]3C1)C(=O)N1CCC[C@H](N1)C(=O)OCC(C)(C)C2 (atropisomer, axis not shown) [Example 285] | 7.00 to 8.00 | 7.00 to 8.00 | 7.00 to 8.00 | > 8.00 | 7.00 to 8.00 | 7.00 to 8.00 | 7.00 to 8.00 | 7.00 to 8.00 | 6.00 to 7.00 | 6.00 to 7.00 | 7.00 to 8.00 | 7.00 to 8.00 | 
CCn1c(-c2cccnc2[C@H](C)OC)c2c3cc(ccc31)-c1cc(O)cc(c1)C[C@H](NC(=O)[C@H](C1CCCC1)N(C)C(=O)CN(C)C(=O)[C@@H]1N[C@@H]1C1(OC)CC1)C(=O)N1CCC[C@H](N1)C(=O)OCC(C)(C)C2 (single isomer, unassigned) [Example 323] |  |  |  |  |  |  |  |  |  |  |  |  | pIC50 (KRAS G12D; KRAS G12D FRET data IC50, Ras-Raf disruption): 6.00 to 7.00; pIC50 (KRAS G12S; KRAS G12S FRET data IC50, Ras-Raf disruption): 7.00 to 8.00; pIC50 (KRAS G12V; KRAS G12V FRET data IC50, Ras-Raf disruption): 7.00 to 8.00; pIC50 (KRAS G13C; KRAS G13C FRET data IC50, Ras-Raf disruption): 7.00 to 8.00; pIC50 (KRAS G13D; KRAS G13D FRET data IC50, Ras-Raf disruption): 6.00 to 7.00; pIC50 (KRAS Q61H): 7.00 to 8.00; pIC50 (KRAS WT; KRAS WT FRET data IC50, Ras-Raf disruption): 7.00 to 8.00; pIC50 (NRAS G12C; NRAS G12C FRET data IC50, NRAS G12C): 7.00 to 8.00; pIC50 (NRAS Q61K): 6.00 to 7.00; pIC50 (NRAS Q61R): 6.00 to 7.00; pIC50 (NRAS WT): 7.00 to 8.00; pIC50 (KRAS G12C; KRAS G12C FRET data IC50, Ras-Raf disruption): 7.00 to 8.00
CCn1c(-c2cccnc2[C@H](C)OC)c2c3cc(ccc31)-c1cc(O)cc(c1)C[C@H](NC(=O)[C@H](C(C)C)N(C)C(=O)N1CC[C@@H](N(C)C(=O)[C@H]3CN3)C1)C(=O)N1CCC[C@H](N1)C(=O)OCC(C)(C)C2 (atropisomer, axis not shown) [Example 252] | 6.00 to 7.00 | 6.00 to 7.00 | 6.00 to 7.00 | 7.00 to 8.00 | 6.00 to 7.00 | 7.00 to 8.00 | 7.00 to 8.00 | > 8.00 | 6.00 to 7.00 | 6.00 to 7.00 | 7.00 to 8.00 | > 8.00 | 
